Experimental data reported in ChEMBL document CHEMBL1201862, “PubChem BioAssay data set” (2004).
Active and inactive are the calls of the source.

Experiments:
[1] = molecular target: T1, Ubiquitin-conjugating enzyme E2 N (Homo sapiens, UniProt P61088); format: functional
T1 sequence (P61088 whole entry): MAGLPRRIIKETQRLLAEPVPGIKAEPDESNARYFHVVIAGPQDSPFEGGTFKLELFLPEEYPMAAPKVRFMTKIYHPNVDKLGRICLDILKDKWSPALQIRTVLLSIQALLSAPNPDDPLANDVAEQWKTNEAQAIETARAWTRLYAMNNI

Bcl-2-related protein A1 = molecular target: T2, Bcl-2-related protein A1 (Mus musculus, UniProt Q07440); format: functional;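 note: confirmatory dose–response counterscreen on Bfl-1, used to check hits from a UBC13 polyubiquitin inhibitor campaign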
T2 sequence (Q07440 whole entry): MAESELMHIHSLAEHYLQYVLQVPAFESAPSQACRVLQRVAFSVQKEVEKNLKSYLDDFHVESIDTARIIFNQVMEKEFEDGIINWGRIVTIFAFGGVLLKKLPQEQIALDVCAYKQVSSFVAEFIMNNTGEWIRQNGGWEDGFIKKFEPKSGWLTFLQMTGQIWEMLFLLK

[2] = molecular target: T1, Ubiquitin-conjugating enzyme E2 N; format: functional; remark: listed apart in the source
[3] = HPDE-C7 pancreatic duct cell viability loss – fluorescence, HTS (AID 430); format: functional, cell-based; conditions: Homo sapiens
[4] = microbe, parasite or virus in culture; format: functional; conditions: Mycobacterium tuberculosis
[5] = viability loss of HPDE-C7K cells – cell-based, fluorescence, HTS, primary screen (AID 431); format: functional; conditions: Homo sapiens
[6] = molecular target: Glucose-6-phosphate 1-dehydrogenase (Homo sapiens, UniProt P11413); assay: inhibition of Homo sapiens G6PD, dose series – biochemical, fluorescence, selectivity assay for P. falciparum G6PD inhibitor project, dose response (AID 504792); format: functional
cells [7] = format: functional, cell-based
cells [8] = format: functional, cell-based; remark: listed apart in the source
[9] = molecular target: T3, DNA dC->dU-editing enzyme APOBEC-3G (Homo sapiens, UniProt Q9HC16); assay: Dose Response confirmation of small molecule APOBEC3G DNA Deaminase Inhibitors via a fluorescence-based single-stranded DNA deaminase assay. [Related pubchem assays (depositor defined):AID493012, AID493028]; format: functional
[10] = Vero E6 cell cytotoxicity, dose response, cytotoxicity control for non-replicating M. tuberculosis project, secondary assay (AID 492998); format: functional, VeroE6; conditions: Vero C1008
Streptococcus = assay: GAS UMAA2166 growth inhibition – luminescence, BacTiterGlo, counter-screen for streptokinase expression inhibitor project, dose response (AID 1915); format: functional, organism-based;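 note: potency for reduction of bacterial viability or growth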
[11] = alpha-synuclein stem-loop luciferase translation blockers – H4 neuroglioma cells, luminescence, confirmation (AID 1988); format: functional, cell-based
[12] = molecular target: T4, RNA-binding protein pos-1 (Caenorhabditis elegans, UniProt G5EF15); assay: disruptors of C. elegans POS-1 RNA interaction – biochemical, fluorescence polarization, dose response (AID 1964);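 note: purified POS-1 fused to maltose binding protein made in E. coli; potency of compounds blocking POS-1 binding to fluorescent RNA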
T4 sequence (G5EF15 whole entry): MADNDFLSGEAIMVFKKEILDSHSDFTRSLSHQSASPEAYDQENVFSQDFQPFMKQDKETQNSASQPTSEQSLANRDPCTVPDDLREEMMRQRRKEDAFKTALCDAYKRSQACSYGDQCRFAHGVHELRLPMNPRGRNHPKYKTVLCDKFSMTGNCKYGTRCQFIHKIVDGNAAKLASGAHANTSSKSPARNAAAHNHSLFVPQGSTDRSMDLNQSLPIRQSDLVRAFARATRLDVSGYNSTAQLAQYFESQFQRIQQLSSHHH

[13] = Luminescence Cell-Based Dose Response HTS to Identify Inhibitors of 5'UTR Stem-Loop Driven Prion Protein mRNA Translation in H4 Neuroglioblastoma Cells. [Related pubchem assays: 1827 (Project Summary), 1813 (Primary HTS)]; format: functional
[14] = tested on: Streptococcus sp. 'group A'; assay: Streptococcus pyogenes SK(-)GAS viability under kanamycin – luminescence, BacTiterGlo, confirmation, counter-screen for streptokinase expression inhibitor project, dose response (AID 1900); format: functional, organism-based
[15] = THP-1 cell cytotoxicity, dose response, cytotoxicity control for non-replicating M. tuberculosis project (AID 489025); format: functional
[16] = luciferase reporter signal suppression in cells – H4 neuroglioma cells, luminescence, dose response (AID 1990); format: functional, cell-based
[17] = molecular target: T5, Short transient receptor potential channel 4 (Mus musculus, UniProt Q9QUQ5); assay: block of DAMGO-driven TRPC4 calcium entry – cell-based, HEK293 TRPC4/mu-opioid, Fluo-4 calcium, dose response (AID 434942); format: functional;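 note: potency of inhibitors blocking the TRPC4 calcium response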
T5 sequence (Q9QUQ5 whole entry): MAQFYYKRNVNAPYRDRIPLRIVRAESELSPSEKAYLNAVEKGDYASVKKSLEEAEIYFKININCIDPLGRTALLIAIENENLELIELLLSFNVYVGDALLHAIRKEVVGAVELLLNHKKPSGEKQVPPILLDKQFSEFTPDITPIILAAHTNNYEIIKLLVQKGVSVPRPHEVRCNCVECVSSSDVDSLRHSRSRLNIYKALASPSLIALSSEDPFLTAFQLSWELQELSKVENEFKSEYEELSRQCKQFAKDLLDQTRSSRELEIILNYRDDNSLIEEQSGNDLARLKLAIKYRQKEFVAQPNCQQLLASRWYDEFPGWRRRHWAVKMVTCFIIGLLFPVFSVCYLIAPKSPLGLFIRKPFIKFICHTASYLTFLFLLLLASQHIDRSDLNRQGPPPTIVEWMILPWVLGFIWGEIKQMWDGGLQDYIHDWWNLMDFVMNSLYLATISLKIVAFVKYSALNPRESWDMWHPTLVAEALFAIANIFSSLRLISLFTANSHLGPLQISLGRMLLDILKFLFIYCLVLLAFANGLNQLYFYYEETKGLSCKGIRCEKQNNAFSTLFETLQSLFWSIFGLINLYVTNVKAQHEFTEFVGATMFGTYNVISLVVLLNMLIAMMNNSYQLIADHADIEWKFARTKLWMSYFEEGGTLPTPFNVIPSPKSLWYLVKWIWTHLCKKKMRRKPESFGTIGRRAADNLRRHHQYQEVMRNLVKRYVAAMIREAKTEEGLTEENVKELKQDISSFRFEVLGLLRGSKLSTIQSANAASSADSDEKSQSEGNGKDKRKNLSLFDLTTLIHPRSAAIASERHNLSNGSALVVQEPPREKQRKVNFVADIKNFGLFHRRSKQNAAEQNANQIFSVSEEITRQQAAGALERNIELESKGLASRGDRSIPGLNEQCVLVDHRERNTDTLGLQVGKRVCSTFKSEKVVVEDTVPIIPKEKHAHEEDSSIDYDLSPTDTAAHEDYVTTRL

[18] = molecular target: DNA dC->dU-editing enzyme APOBEC-3A (Homo sapiens, UniProt P31941); assay: Dose Response confirmation of small molecule APOBEC3A DNA Deaminase Inhibitors via a fluorescence-based single-stranded DNA deaminase assay. [Related pubchem assays (depositor defined):AID493011, AID493024]; format: functional
[19] = molecular target: T3, DNA dC->dU-editing enzyme APOBEC-3G; format: functional
cells [20] = format: functional

T3 sequence (Q9HC16 whole entry): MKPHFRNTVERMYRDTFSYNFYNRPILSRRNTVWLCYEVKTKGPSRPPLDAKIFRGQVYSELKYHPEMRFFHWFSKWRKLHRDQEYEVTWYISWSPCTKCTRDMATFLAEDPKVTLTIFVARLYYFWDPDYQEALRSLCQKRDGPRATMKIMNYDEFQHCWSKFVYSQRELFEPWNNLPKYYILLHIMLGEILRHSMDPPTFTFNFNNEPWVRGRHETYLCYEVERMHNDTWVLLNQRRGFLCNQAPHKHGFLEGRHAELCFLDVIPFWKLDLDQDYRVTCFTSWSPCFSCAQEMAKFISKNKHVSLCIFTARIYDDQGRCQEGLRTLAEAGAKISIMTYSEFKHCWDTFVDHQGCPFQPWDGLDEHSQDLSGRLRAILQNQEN
DNA dC->dU-editing enzyme APOBEC-3A, sequence (P31941 whole entry): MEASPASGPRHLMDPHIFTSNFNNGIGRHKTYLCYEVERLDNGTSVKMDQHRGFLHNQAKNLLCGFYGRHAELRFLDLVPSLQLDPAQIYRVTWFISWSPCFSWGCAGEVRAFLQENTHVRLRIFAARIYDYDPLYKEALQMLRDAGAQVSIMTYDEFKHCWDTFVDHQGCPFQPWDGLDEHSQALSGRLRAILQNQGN
Glucose-6-phosphate 1-dehydrogenase, sequence (P11413 whole entry): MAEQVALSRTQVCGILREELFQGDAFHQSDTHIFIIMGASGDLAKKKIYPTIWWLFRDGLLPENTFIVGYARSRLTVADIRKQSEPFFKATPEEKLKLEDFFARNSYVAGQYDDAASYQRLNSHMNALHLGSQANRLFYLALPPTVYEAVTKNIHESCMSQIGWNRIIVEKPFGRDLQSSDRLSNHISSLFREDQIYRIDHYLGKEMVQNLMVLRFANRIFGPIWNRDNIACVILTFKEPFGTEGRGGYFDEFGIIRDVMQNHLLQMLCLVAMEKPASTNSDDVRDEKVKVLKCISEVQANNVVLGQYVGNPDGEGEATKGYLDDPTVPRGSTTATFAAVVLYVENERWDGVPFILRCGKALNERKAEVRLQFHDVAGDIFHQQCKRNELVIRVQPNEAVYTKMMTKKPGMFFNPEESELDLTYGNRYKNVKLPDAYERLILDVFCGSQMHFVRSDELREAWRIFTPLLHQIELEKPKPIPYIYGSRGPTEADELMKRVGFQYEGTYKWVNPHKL

SMILES: Cc1ccc(C(C(=O)NCC2CCCO2)N(C(=O)c2snc(C(N)=O)c2N)c2ccc3c(c2)OCCO3)cc1 (stereo not given)
- IC50 [1]: 13.1 µM (active)
- IC50 (Bcl-2-related protein A1): > 20 µM (inactive)
- IC50 [2]: 12.6 µM (active)

SMILES: CC(C)(C)c1ccc(Cn2nnc3c(O)nc(C4CCCN(C(=O)Cc5cccs5)C4)nc32)cc1 (stereo not given)
- EC50 [3]: 15.6 µM (active)
- CC50 [4]: > 40 µM (active)
- EC50 [5]: 18.4 µM (active)

SMILES: CCC(C)(C)c1nnc(NC(=O)C2CCN(C(=O)c3ccco3)CC2)s1
- IC50 [6]: > 80 µM (inactive)
- EC50 (cells [7]): > 350 µM (not active)
- EC50 (cells [8]): > 350 µM (not active)
- IC50 [9]: 25.9 µM (active)

SMILES: CC/C(=C\C=C\[C@@H]1C=C[C@@H]2CCC[C@H]2[C@@H]1C(=O)c1ccc[nH]1)[C@@H]1O[C@@H]([C@@H](C)C(=O)O)CC[C@@H]1C
- CC50 [10]: 16.5 µM (active)
- EC50 (Streptococcus): 147 nM (active)
- EC50 [11]: > 120 µM (not active)
- EC50 [12]: > 300 µM (inconclusive)
- EC50 [13]: 14.4 µM (active)
- EC50 [14]: 202 nM (active)
- CC50 [15]: 12.4 µM (active)
- EC50 [16]: 14.2 µM (active)

SMILES: O=c1c2ccccc2[nH]c(=S)n1CCN1CCN(Cc2ccccc2)CC1
- EC50 [17]: 4.73 µM (active)

SMILES: O=C(COC(=O)Cn1cnc2ccccc2c1=O)Nc1ccccc1Sc1ccc(Cl)cc1
- EC50 [17]: 1.88 µM (active)

SMILES: CNC(=O)OCc1n(C)cc[n+]1C
- IC50 [18]: 1.76 µM (active)
- IC50 [19]: 1.31 µM (active)

SMILES: Cc1cc(Cl)ccc1OCC(=O)NNC(=O)c1cnccn1
- CC50 [10]: 13.7 µM (active)
- IC50 (cells [20]): 5.5 µM (active)
- CC50 [15]: > 40 µM (active)
